Experimental data: the supplement of paper PMC10307832

How the values were obtained:
Test in all cases: relative viability (nuclei count vs DMSO), 5 days (fraction); higher = more cells survive
[1] = compound: C[C@]12O[C@H](C[C@]1(O)CO)n1c3ccccc3c3c4c(c5c6ccccc6n2c5c31)CNC4=O [Lestaurtinib] + CC1(C)CCC(c2ccc(Cl)cc2)=C(CN2CCN(c3ccc(C(=O)NS(=O)(=O)c4ccc(N[C@H](CCN5CCOCC5)CSc5ccccc5)c(S(=O)(=O)C(F)(F)F)c4)cc3)CC2)C1 [Navitoclax] (partner 0.5 µM)
Summary of the method: (§1)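 Values are medians from duplicate plates. Each reflects relative viability, defined as the nuclei count of treated wells over that of vehicle wells. Lung cancer cell lines in 1536-well plates were pin-tool dosed one day after seeding with one drug alone or with a fixed anchor-drug dose plus five library-drug doses (not always all listed) in √10 steps, then fixed, stained and imaged at 4× after 5 days.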

[2] = compound: C1=CC(=CC=C1C2=CC(=C(S2)NC(=O)N)C(=O)N)F [TPCA-1] + Cc1cc(Nc2cc(N3CCN(C)CC3)nc(Sc3ccc(NC(=O)C4CC4)cc3)n2)n[nH]1 [Tozasertib] (partner 0.1 µM)
Summary of the method: as §1

[3] = compound: C[C@]12O[C@H](C[C@]1(O)CO)n1c3ccccc3c3c4c(c5c6ccccc6n2c5c31)CNC4=O [Lestaurtinib] + NC(=O)Nc1cc(-c2cccc(F)c2)sc1C(=O)N[C@H]1CCCNC1 [AZD7762] (partner 0.2 µM)
Summary of the method: as §1

[4] = compound: C1/C(=C\C2=CC=CS2)/C(=O)/C(=C/C3=CC=CS3)/C1 + Cc1nc(NC(=O)N2CCC[C@H]2C(N)=O)sc1-c1ccnc(C(C)(C)C(F)(F)F)c1 [Alpelisib] (partner 2 µM)
Summary of the method: as §1

Cell Line	relative viability ([1]; first compound 0.005 µM)	relative viability ([1]; first compound 0.01581 µM)	relative viability ([1]; first compound 0.05 µM)	relative viability ([1]; first compound 0.1581 µM)	relative viability ([1]; first compound 0.5 µM)	relative viability ([2]; first compound 0.04 µM)	relative viability ([2]; first compound 0.1265 µM)	relative viability ([2]; first compound 0.4 µM)	relative viability ([2]; first compound 1.265 µM)	relative viability ([2]; first compound 4 µM)	relative viability ([3]; first compound 0.005 µM)	relative viability ([3]; first compound 0.01581 µM)	relative viability ([3]; first compound 0.05 µM)	relative viability ([3]; first compound 0.1581 µM)	relative viability ([3]; first compound 0.5 µM)	relative viability ([4]; first compound 0.2 µM)	relative viability ([4]; first compound 0.6325 µM)	relative viability ([4]; first compound 2 µM)	relative viability ([4]; first compound 6.325 µM)	relative viability ([4]; first compound 20 µM)
PC-3 [JPC-3]	0.84	0.788	0.763	0.65	0.55	0.869	0.874	0.892	0.848	0.545	0.759	1.04	0.688	0.586	0.485	0.994	0.995	0.998	0.97	1.05
NCI-H1792	0.322	0.86	0.428	0.23	0.166						0.758	0.669	0.556	0.387	0.174	0.803	0.763	0.711		0.697
NCI-H596	0.968	0.978	0.937	1.15	0.943	0.834	0.689	0.916	0.86	0.759	1.13	0.95	0.893	1.13	1.05	0.56	0.467	0.522	0.467	0.389
COR-L 105	0.803	0.746	0.595	0.643	0.322	0.398	0.355	0.309	0.349	0.335						1.36	1.02	0.902	0.728	0.913
NCI-H2023	1.13	1.06	0.875	0.88	0.252	0.357	0.282	0.335	0.15	0.0965						0.706	0.595	0.63	0.559	0.619
EBC-1	0.381	0.51	0.343	0.328	0.193											0.852	0.923	0.947	0.786	0.845
ABC-1						0.153	0.199	0.137	0.163	0.142	0.59	1.09	0.692	0.76	0.593	1.06	1.17	1.11	0.881	0.739
NCI-H520	1.11	1.15	1.05	0.455	0.319	0.445	0.395	0.448	0.498	0.319						0.927	0.847	0.928	0.82	0.835
NCI-H1650	1.24	1.37	1.31	1.56	0.503	0.386		0.459	0.339	0.257										
SK-MES-1	1.35	1.25	0.59	0.354	0.343	0.866	0.82	0.933	0.728	0.24						1.04	0.912	0.879	0.854	0.798
NCI-H1563																0.933	0.912	0.881	0.93	1.02
NCI-H1648						0.548	0.355	0.486	0.573	0.379		1.47		0.977	0.644					
NCI-H1299	1.02	1.06	0.946	0.845	0.489											1.04	1.08	1.03	0.948	1.04
A549	1.28	1.27	0.948	0.615	0.0764											0.608	0.867	0.746	0.483	0.73
NCI-H1623						0.408	0.402	0.454	0.437	0.37										
NCI-H1703	1.22	1.09	0.424	0.219	0.11						0.122	0.115	0.107	0.108	0.0966	0.41	0.453	0.334	0.287	0.318
NCI-H661						0.376	0.349	0.366	0.345	0.339						0.611	0.792	0.838	0.515	0.7
NCI-H2009	1.16	1.25	1.06	1.3	0.22	0.8	0.686	0.834	0.649	0.545						0.991	1.2	1.16	1.14	1.13
NCI-H522						0.562	0.589	0.586	0.578	0.553	0.944	0.778	0.842	0.744	0.479					
Calu-6	1.01	0.797	0.506	0.468	0.106											0.971	1.08	1.04	0.849	1.01
ChaGo-K-1	1.03	1.59	0.962	0.603	0.497	0.232	0.237	0.251	0.226	0.207	0.924	0.834	0.775	0.816	0.461					
COR-L23	1.14	1.12		0.62	0.184	0.155	0.168	0.18	0.134	0.129						0.772	0.829	0.818	0.722	0.686
LCLC-103H						0.488	0.405	0.515	0.513	0.321	0.924	0.785	0.635	0.633	0.452	1.05	0.926	1.02	0.73	0.956
SW 1573	1.14	1.01	0.851	0.699	0.68	0.189	0.162	0.181	0.132	0.135						0.785	0.905	0.838	0.547	0.757
